{"source": "patent US20250368666A1", "about": "“INDAZOLE COMPOUNDS” (TYRA BIOSCIENCES, INC., priority 2022, published 2025)", "key": {"[1]": {"target": "T1, FGFR1 (Homo sapiens, UniProt P11362)", "T1 construct": "made in house; host or cells: E. coli (BL21-derived), T7 phage", "T1 sequence (P11362 22-822)": "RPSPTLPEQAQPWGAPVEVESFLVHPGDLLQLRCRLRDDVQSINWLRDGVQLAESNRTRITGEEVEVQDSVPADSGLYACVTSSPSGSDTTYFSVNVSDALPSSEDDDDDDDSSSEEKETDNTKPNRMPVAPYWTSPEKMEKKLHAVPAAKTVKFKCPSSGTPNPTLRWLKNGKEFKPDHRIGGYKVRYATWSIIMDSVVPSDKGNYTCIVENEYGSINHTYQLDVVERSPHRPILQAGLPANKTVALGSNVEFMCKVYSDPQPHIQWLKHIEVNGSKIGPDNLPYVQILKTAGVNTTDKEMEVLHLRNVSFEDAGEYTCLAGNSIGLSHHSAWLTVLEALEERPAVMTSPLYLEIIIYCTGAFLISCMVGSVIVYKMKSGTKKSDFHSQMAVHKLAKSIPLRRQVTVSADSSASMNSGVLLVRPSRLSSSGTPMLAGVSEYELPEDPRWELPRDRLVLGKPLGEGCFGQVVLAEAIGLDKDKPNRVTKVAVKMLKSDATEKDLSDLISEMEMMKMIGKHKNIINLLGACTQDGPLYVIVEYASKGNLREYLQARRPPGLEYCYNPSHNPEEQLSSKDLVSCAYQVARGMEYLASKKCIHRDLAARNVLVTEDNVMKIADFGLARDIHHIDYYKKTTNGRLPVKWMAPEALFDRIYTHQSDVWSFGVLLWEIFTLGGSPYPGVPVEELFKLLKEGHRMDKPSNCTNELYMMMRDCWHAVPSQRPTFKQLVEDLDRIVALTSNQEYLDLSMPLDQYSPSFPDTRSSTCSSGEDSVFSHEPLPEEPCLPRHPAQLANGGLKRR", "assay": "Kinase binding assay (kinase-tagged T7 phage, affinity beads, qPCR), Kd", "conditions": "read-out: FGFR1 (Kd nM)", "method_in_brief": "(§1)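 Phage-tagged kinase capture on small-molecule affinity resin, compound competition, qPCR quantitation; Kd from Levenberg-Marquardt Hill fit.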"}, "[2]": {"target": "T2, FGFR3 (Homo sapiens, UniProt P22607)", "T2 construct": "made in house; host or cells: E. coli (BL21-derived), T7 phage", "T2 sequence (P22607 23-806)": "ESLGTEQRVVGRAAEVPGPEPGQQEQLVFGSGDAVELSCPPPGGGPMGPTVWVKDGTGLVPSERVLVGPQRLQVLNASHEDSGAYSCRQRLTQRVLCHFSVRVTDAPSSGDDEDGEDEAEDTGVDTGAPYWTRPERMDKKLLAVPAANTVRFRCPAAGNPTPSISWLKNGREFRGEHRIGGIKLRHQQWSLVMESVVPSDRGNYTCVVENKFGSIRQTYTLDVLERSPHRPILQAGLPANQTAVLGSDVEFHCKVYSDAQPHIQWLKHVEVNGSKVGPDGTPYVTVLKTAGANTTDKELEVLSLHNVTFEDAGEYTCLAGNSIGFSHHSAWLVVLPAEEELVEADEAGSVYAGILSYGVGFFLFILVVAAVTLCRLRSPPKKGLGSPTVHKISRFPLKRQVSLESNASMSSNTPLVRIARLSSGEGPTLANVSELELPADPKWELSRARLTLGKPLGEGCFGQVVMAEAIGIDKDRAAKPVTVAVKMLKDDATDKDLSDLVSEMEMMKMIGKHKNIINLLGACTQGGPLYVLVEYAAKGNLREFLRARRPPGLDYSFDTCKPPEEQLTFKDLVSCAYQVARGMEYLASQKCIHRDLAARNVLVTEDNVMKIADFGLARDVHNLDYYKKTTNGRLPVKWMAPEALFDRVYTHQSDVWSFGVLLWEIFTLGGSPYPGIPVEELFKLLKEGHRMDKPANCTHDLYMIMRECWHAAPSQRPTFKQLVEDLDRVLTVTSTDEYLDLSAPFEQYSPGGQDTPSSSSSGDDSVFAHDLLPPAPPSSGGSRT", "assay": "Kinase binding assay (kinase-tagged T7 phage, affinity beads, qPCR), Kd", "conditions": "read-out: FGFR3 (Kd nM)", "method_in_brief": "as §1"}, "[3]": {"tested_on": "MDA-MB-453 cell line (FGFR4-Y367C)", "assay": "Cancer cell line cell viability assay (Cell Titer-Glo), 120 hr", "assay_type": "cell-based", "conditions": "Homo sapiens", "method_in_brief": "(§2)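 Luminescent ATP read-out (Cell Titer-Glo 2.0) after compound exposure, normalised to DMSO-only wells. Dosing: 9 concentrations, 4-fold steps, top 3 μM, triplicates. IC50 derived by log(inhibitor) vs. response 4-parameter fit.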"}, "[4]": {"tested_on": "KATO-III cell line (FGFR2 amplification)", "assay": "Cancer cell line cell viability assay (Cell Titer-Glo), 72 hr", "assay_type": "cell-based", "conditions": "Homo sapiens, KATO III", "method_in_brief": "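Cells seeded at 5,000-20,000/well, incubated overnight, then treated with a 9-dose, 4-fold dilution series from 3 μM in triplicate at 37° C, 5% CO2. Viability read by Cell Titer-Glo 2.0 luminescence as percent of DMSO control; IC50 from 4-parameter variable-slope sigmoidal fit.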"}, "[5]": {"tested_on": "KG-1 cell line (FGFR 1-fusion)", "assay": "Cancer cell line cell viability assay (Cell Titer-Glo), 72 hr", "assay_type": "cell-based", "conditions": "Homo sapiens, KG-1, KG-1 cell line (FGFR1-fusion)", "method_in_brief": "as §2"}, "[6]": {"tested_on": "RT112/84 cell line (FGFR3-fusion)", "assay": "Cancer cell line cell viability assay (Cell Titer-Glo), 72 hr", "assay_type": "cell-based", "conditions": "Homo sapiens, RT112/84, RT112/84 cell line (FGFR3-fusion)", "method_in_brief": "as §2"}}, "note": "Counter-ions that a name gives are not always drawn.", "data": [{"smiles": "CC(C)NC1(C)CN(c2ccc(-c3n[nH]c4ccc(O[C@H](C)c5c(Cl)cncc5Cl)cc34)nn2)C1", "note": "[Example 244, (R)-1-(6-(5-(1-(3,5-dichloropyridin-4-yl)ethoxy)-1H-indazol-3-yl)pyridazin-3-yl)-N-isopropyl-3-methylazetidin-3-amine]", "values": [{"measurement": "Kd", "setting": "[1]", "result": "1 to 50", "unit": "nM"}, {"measurement": "Kd", "setting": "[2]", "result": "1 to 50", "unit": "nM"}, {"measurement": "IC50", "setting": "[3]", "result": "200 to 1000", "unit": "nM"}, {"measurement": "IC50", "setting": "[4]", "result": "50 to 200", "unit": "nM"}, {"measurement": "IC50", "setting": "[5]", "result": "50 to 200", "unit": "nM"}, {"measurement": "IC50", "setting": "[6]", "result": "0.1 to 50", "unit": "nM"}]}, {"smiles": "CC(C)CN(C)C1(C)CN(c2ncc(-c3n[nH]c4ccc(O[C@H](C)c5c(Cl)cncc5Cl)cc34)cc2F)C1", "note": "[Example 245, (R)-1-(5-(5-(1-(3,5-dichloropyridin-4-yl)ethoxy)-1H-indazol-3-yl)-3-fluoropyridin-2-yl)-N-isobutyl-N,3-dimethylazetidin-3-amine]", "values": [{"measurement": "Kd", "setting": "[1]", "result": "50 to 300", "unit": "nM"}, {"measurement": "Kd", "setting": "[2]", "result": "1 to 50", "unit": "nM"}, {"measurement": "IC50", "setting": "[3]", "result": "> 1000", "unit": "nM"}, {"measurement": "IC50", "setting": "[4]", "result": "> 1000", "unit": "nM"}, {"measurement": "IC50", "setting": "[5]", "result": "> 1000", "unit": "nM"}, {"measurement": "IC50", "setting": "[6]", "result": "50 to 200", "unit": "nM"}]}, {"smiles": "C[C@@H](Oc1ccc2[nH]nc(-c3cnc(N4CC(C)(N(C)CC5CC5)C4)c(F)c3)c2c1)c1c(Cl)cncc1Cl", "note": "[Example 246, (R)-N-(cyclopropyl-methyl)-1-(5-(5-(1-(3,5-dichloropyridin-4-yl)ethoxy)-1H-indazol-3-yl)-3-fluoropyridin-2-yl)-N,3-dimethylazetidin-3-amine]", "values": [{"measurement": "Kd", "setting": "[1]", "result": "1 to 50", "unit": "nM"}, {"measurement": "Kd", "setting": "[2]", "result": "1 to 50", "unit": "nM"}, {"measurement": "IC50", "setting": "[3]", "result": "200 to 1000", "unit": "nM"}, {"measurement": "IC50", "setting": "[4]", "result": "50 to 200", "unit": "nM"}, {"measurement": "IC50", "setting": "[5]", "result": "200 to 1000", "unit": "nM"}, {"measurement": "IC50", "setting": "[6]", "result": "0.1 to 50", "unit": "nM"}]}, {"smiles": "CCC1(NCC2CC2)CN(c2ncc(-c3n[nH]c4ccc(O[C@H](C)c5c(Cl)cncc5Cl)cc34)cc2F)C1", "note": "[Example 247, N-(cyclopropylmethyl)-1-[5-[5-[(1R)-1-(3,5-dichloro-4-pyridyl)ethoxy]-1H-indazol-3-yl]-3-fluoro-2-pyridyl]-3-ethyl-azetidin-3-amine dihydrochloride]", "values": [{"measurement": "Kd", "setting": "[1]", "result": "1 to 50", "unit": "nM"}, {"measurement": "Kd", "setting": "[2]", "result": "1 to 50", "unit": "nM"}, {"measurement": "IC50", "setting": "[3]", "result": "50 to 200", "unit": "nM"}, {"measurement": "IC50", "setting": "[4]", "result": "50 to 200", "unit": "nM"}, {"measurement": "IC50", "setting": "[5]", "result": "50 to 200", "unit": "nM"}, {"measurement": "IC50", "setting": "[6]", "result": "0.1 to 50", "unit": "nM"}]}, {"smiles": "Cc1ncc(Cl)c([C@@H](C)Oc2ccc3[nH]nc(-c4cnc(N5CC(CC#N)(NCC6CC6)C5)c(F)c4)c3c2)c1Cl", "note": "[Example 250, 2-[3-(cyclopropylmethyl-amino)-1-[5-[5-[(1R)-1-(3,5-di-chloro-2-methyl-4-pyridyl)ethoxy]-1H-indazol-3-yl]-3-fluoro-2-pyridyl]azetidin-3-yl]acetonitrile]", "values": [{"measurement": "Kd", "setting": "[1]", "result": "50 to 300", "unit": "nM"}, {"measurement": "Kd", "setting": "[2]", "result": "1 to 50", "unit": "nM"}, {"measurement": "IC50", "setting": "[3]", "result": "200 to 1000", "unit": "nM"}, {"measurement": "IC50", "setting": "[4]", "result": "50 to 200", "unit": "nM"}, {"measurement": "IC50", "setting": "[5]", "result": "200 to 1000", "unit": "nM"}, {"measurement": "IC50", "setting": "[6]", "result": "0.1 to 50", "unit": "nM"}]}, {"smiles": "C[C@@H](Oc1ccc2[nH]nc(-c3cnc(N4CC(CC#N)(N5CCCC5)C4)c(F)c3)c2c1)c1c(Cl)cncc1Cl", "note": "[Example 251, (R)-2-(1-(5-(5-(1-(3,5-dichloropyridin-4-yl)ethoxy)-1H-indazol-3-yl)-3-fluoropyridin-2-yl)-3-(pyrrolidin-1-yl)azetidin-3-yl)acetonitrile]", "values": [{"measurement": "Kd", "setting": "[1]", "result": "1 to 50", "unit": "nM"}, {"measurement": "Kd", "setting": "[2]", "result": "1 to 50", "unit": "nM"}, {"measurement": "IC50", "setting": "[3]", "result": "50 to 200", "unit": "nM"}, {"measurement": "IC50", "setting": "[4]", "result": "0.1 to 50", "unit": "nM"}, {"measurement": "IC50", "setting": "[5]", "result": "50 to 200", "unit": "nM"}, {"measurement": "IC50", "setting": "[6]", "result": "0.1 to 50", "unit": "nM"}]}, {"smiles": "CC(C)C1(N)CN(c2ncc(-c3n[nH]c4ccc(O[C@H](C)c5c(Cl)cncc5Cl)cc34)cc2F)C1", "note": "[Example 255, (R)-1-(5-(5-(1-(3,5-dichloropyridin-4-yl)ethoxy)-1H-indazol-3-yl)-3-fluoropyridin-2-yl)-3-isopropylazetidin-3-amine]", "values": [{"measurement": "Kd", "setting": "[1]", "result": "1 to 50", "unit": "nM"}, {"measurement": "Kd", "setting": "[2]", "result": "1 to 50", "unit": "nM"}, {"measurement": "IC50", "setting": "[3]", "result": "50 to 200", "unit": "nM"}, {"measurement": "IC50", "setting": "[4]", "result": "0.1 to 50", "unit": "nM"}, {"measurement": "IC50", "setting": "[5]", "result": "50 to 200", "unit": "nM"}, {"measurement": "IC50", "setting": "[6]", "result": "0.1 to 50", "unit": "nM"}]}, {"smiles": "C[C@@H](Oc1ccc2[nH]nc(-c3cnc(N4CC(N)(C5CCC5)C4)c(F)c3)c2c1)c1c(Cl)cncc1Cl", "note": "[Example 256, (R)-3-cyclobutyl-1-(5-(5-(1-(3,5-dichloropyridin-4-yl)ethoxy)-1H-indazol-3-yl)-3-fluoropyridin-2-yl)azetidin-3-amine]", "values": [{"measurement": "Kd", "setting": "[1]", "result": "1 to 50", "unit": "nM"}, {"measurement": "Kd", "setting": "[2]", "result": "1 to 50", "unit": "nM"}, {"measurement": "IC50", "setting": "[3]", "result": "50 to 200", "unit": "nM"}, {"measurement": "IC50", "setting": "[4]", "result": "50 to 200", "unit": "nM"}, {"measurement": "IC50", "setting": "[5]", "result": "50 to 200", "unit": "nM"}, {"measurement": "IC50", "setting": "[6]", "result": "0.1 to 50", "unit": "nM"}]}]}
